Reference: ChEMBL document CHEMBL4431386, “Potent selective monoamine oxidase B inhibition by maackiain, a pterocarpan from the roots of Sophora flavescens” (Bioorg Med Chem Lett, 2016)

Tests used:
[1] = biological target: T1, Amine oxidase [flavin-containing] B (Homo sapiens, UniProt P27338); test: Reversible inhibition of recombinant human MAO-B expressed in baculovirus infected BTI insect cells assessed as residual activity at 8 uM preincubated for 10 mins followed by addition of 2 mM of benzylamine as substrate and further addition of 2 mM of benzylamine at the end of first reaction; conditions: read-out: Activity
T1 sequence (P27338 whole entry): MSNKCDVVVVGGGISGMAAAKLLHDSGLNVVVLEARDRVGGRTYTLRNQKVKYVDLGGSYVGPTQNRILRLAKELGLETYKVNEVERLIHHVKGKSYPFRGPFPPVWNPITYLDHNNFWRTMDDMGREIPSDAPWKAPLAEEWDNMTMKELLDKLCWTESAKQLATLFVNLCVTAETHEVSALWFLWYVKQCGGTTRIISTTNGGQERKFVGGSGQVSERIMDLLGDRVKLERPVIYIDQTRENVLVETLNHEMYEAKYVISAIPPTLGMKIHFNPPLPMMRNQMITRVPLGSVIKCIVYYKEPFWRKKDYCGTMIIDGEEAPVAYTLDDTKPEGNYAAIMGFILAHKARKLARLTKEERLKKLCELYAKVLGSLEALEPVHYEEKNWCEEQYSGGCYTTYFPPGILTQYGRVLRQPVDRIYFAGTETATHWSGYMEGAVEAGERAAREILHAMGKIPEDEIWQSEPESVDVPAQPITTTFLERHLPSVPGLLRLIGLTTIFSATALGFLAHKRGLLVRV

[2] = biological target: T1, Amine oxidase [flavin-containing] B; test: Time-dependent inhibition of recombinant human MAO-B expressed in baculovirus infected BTI insect cells at 8 uM pretreated with compound up to 30 mins followed by addition of benzylamine as substrate
[3] = biological target: T1, Amine oxidase [flavin-containing] B; test: Inhibition of recombinant human MAO-B expressed in baculovirus infected BTI insect cells assessed as residual activity at 8 uM preincubated for 10 mins followed by addition of 2 mM of benzylamine as substrate; conditions: read-out: Activity
Homo sapiens = organism: Homo sapiens; test: Selectivity index, ratio of IC50 for recombinant human MAO-A expressed in baculovirus infected BTI insect cells to IC50 for recombinant human MAO-B expressed in baculovirus infected BTI insect cells
[4] = biological target: T1, Amine oxidase [flavin-containing] B; test: Inhibition of recombinant human MAO-B expressed in baculovirus infected BTI insect cells preincubated for 10 mins followed by addition of benzylamine as substrate; assay type: cell-based
[5] = biological target: T1, Amine oxidase [flavin-containing] B; test: Inhibition of recombinant human MAO-B expressed in baculovirus infected BTI insect cells assessed as residual activity at 20 uM preincubated for 10 mins followed by addition of 2 mM of benzylamine as substrate; conditions: read-out: Activity
[6] = biological target: T1, Amine oxidase [flavin-containing] B; test: Reversible inhibition of recombinant human MAO-B expressed in baculovirus infected BTI insect cells assessed as residual activity at 20 uM preincubated for 10 mins followed by addition of 2 mM of benzylamine as substrate and further addition of 2 mM of benzylamine at the end of first reaction; conditions: read-out: Activity
[7] = biological target: T1, Amine oxidase [flavin-containing] B; test: Time-dependent inhibition of recombinant human MAO-B expressed in baculovirus infected BTI insect cells at 20 uM pretreated with compound up to 30 mins followed by addition of benzylamine as substrate
[8] = biological target: T2, Amine oxidase [flavin-containing] A (Homo sapiens, UniProt P21397); test: Inhibition of recombinant human MAO-A expressed in baculovirus infected BTI insect cells preincubated for 10 mins followed by addition of kynuramine as substrate
T2 sequence (P21397 whole entry): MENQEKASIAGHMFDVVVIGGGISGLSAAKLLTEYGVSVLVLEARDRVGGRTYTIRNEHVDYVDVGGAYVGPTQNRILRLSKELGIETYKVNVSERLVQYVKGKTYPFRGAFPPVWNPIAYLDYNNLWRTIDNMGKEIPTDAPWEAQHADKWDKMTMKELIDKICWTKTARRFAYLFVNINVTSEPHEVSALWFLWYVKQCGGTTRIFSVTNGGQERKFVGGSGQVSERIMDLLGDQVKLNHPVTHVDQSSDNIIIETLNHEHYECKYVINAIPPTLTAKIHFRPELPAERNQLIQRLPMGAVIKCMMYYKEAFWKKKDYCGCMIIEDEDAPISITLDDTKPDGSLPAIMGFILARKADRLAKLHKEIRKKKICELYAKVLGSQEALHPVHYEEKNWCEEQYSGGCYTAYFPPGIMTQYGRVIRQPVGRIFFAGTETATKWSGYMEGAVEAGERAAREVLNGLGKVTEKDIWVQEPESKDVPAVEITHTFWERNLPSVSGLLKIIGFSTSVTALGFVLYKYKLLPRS

[9] = biological target: T3, Amine oxidase [flavin-containing] B (Mus musculus, UniProt Q8BW75); test: Inhibition of mouse MAO-B preincubated for 15 mins followed by addition of kynuramine as substrate measured after 30 mins by fluorometric analysis
T3 sequence (Q8BW75 whole entry): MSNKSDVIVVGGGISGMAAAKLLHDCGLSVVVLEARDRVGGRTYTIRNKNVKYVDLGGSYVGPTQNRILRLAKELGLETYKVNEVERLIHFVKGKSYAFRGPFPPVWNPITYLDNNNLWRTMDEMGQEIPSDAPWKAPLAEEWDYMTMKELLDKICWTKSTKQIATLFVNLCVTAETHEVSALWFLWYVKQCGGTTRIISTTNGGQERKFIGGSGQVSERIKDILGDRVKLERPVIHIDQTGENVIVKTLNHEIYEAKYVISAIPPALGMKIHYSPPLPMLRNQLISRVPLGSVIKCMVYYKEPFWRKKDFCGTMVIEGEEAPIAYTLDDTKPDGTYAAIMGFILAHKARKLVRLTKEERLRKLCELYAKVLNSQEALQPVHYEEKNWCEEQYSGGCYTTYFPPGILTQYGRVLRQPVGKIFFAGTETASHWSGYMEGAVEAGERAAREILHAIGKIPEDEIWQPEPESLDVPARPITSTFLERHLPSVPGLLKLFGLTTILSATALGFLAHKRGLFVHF

[10] = biological target: T4, Amine oxidase [flavin-containing] A (Mus musculus, UniProt Q64133); test: Inhibition of mouse MAO-A preincubated for 15 mins followed by addition of kynuramine as substrate measured after 30 mins by fluorometric analysis
T4 sequence (Q64133 whole entry): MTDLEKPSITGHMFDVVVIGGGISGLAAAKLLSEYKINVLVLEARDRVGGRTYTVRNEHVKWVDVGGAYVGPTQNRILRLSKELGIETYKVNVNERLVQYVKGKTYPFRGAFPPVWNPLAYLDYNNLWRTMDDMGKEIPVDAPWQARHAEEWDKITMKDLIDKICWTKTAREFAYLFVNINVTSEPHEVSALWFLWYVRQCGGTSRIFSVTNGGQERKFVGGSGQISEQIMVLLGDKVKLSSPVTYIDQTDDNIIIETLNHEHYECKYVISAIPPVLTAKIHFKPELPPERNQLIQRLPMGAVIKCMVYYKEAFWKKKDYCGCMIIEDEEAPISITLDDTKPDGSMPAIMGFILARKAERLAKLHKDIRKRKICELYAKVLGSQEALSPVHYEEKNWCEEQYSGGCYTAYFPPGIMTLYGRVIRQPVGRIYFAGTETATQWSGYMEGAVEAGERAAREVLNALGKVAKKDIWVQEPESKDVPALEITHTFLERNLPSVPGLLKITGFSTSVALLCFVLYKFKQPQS

[11] = biological target: T1, Amine oxidase [flavin-containing] B; test: Inhibition of recombinant human MAO-B expressed in baculovirus infected BTI insect cells assessed as residual activity at 1.5 uM preincubated for 10 mins followed by addition of 2 mM of benzylamine as substrate; conditions: read-out: Activity
[12] = biological target: T1, Amine oxidase [flavin-containing] B; test: Competitive inhibition of recombinant human MAO-B expressed in baculovirus infected BTI insect cells using benzylamine as substrate by Lineweaver-Burk plot analysis
[13] = biological target: T1, Amine oxidase [flavin-containing] B; test: Reversible inhibition of recombinant human MAO-B expressed in baculovirus infected BTI insect cells assessed as residual activity at 1.5 uM preincubated for 10 mins followed by addition of 2 mM of benzylamine as substrate and further addition of 2 mM of benzylamine at the end of first reaction; conditions: read-out: Activity
[14] = biological target: T1, Amine oxidase [flavin-containing] B; test: Time-dependent inhibition of recombinant human MAO-B expressed in baculovirus infected BTI insect cells at 1.5 uM pretreated with compound up to 30 mins followed by addition of benzylamine as substrate
[15] = biological target: T3, Amine oxidase [flavin-containing] B; test: Competitive inhibition of mouse brain mitochondrial MAO-B using kynuramine as substrate by Lineweaver-Burk plot analysis

Structure (SMILES) | Ratio IC50 (Homo sapiens) | IC50 [4] [µM] | IC50 [8] [µM] | IC50 [9] [µM] | further results
O=c1c(-c2ccc(O)cc2)coc2cc(O)cc(O)c12 [GENISTEIN] |  |  |  |  | activity at 8 µM [1]: 59.5%; TDI [2]: Not Active; activity at 8 µM [3]: 25.3%
COc1ccc2c(c1O)OC[C@H]1c3cc4c(cc3O[C@@H]21)OCO4 | 2 | 10.3 | 20.3 |  | activity at 20 µM [5]: 26.3%; activity at 20 µM [6]: 54.9%; TDI [7]: Not Active
COc1ccc(-c2coc3cc(O)c(CC=C(C)C)c(O)c3c2=O)cc1 |  |  |  | 0.8 | 
COc1ccc(-c2coc3cc(O)ccc3c2=O)cc1 [FORMONONETIN] | 1.2 | 25.8 | 31.2 | 11 | IC50 [10]: 21.2 µM
Oc1ccc2c(c1)OC[C@H]1c3cc4c(cc3O[C@@H]21)OCO4 [MAACKIAIN] | 126 | 0.68 | 85.8 |  | activity at 1.5 µM [11]: 28.7%; Ki [12]: 0.054 µM; activity at 1.5 µM [13]: 66%; TDI [14]: Not Active
CC(C)=CCc1c(O)c(CC=C(C)C)c2c(c1O)C(=O)C[C@@H](c1ccc(O)cc1O)O2 |  | > 100 | > 100 |  | 
CC(C)=CCc1c(O)cc(O)c2c1O[C@H](c1ccc(O)cc1)CC2=O | < 0.39 | > 100 | 38.8 |  | 
C=C(C)[C@H](O)CC/C(C)=C/COc1ccc2ccc(=O)oc2c1 |  |  |  | 0.5 | 
COC(=O)/C=C/C=C/c1ccc2c(c1)OCO2 [METHYL PIPERATE] |  |  |  |  | Ki [15]: 1.3 µM
CC(C)=CCC/C(C)=C/COc1ccc2ccc(=O)oc2c1 |  |  |  | 0.6 | 
